Reference: patent US5922680A, “Stabilized composition for oral administration of peptides” (Ferring, B.V., priority 1997, dated 1999)

Conditions: pH 6.5
Description: Human gastro-intestinal juice was obtained from healthy male volunteers who had been fasting for 8 h. A tube was introduced intranasally after local anaesthesia with xylocaine, and gastric juice was collected. Thereafter one standardized meal was given 1 h before sampling of duodenal and distal jejunum juice and another the next morning before the collection of distal ileal juice. After centrifugation the gastric and intestinal juices were frozen in aliquots of 1 ml and stored at -20° C. […] The peptide or peptide analog (10 μl of 10 mM peptide in 0.9% aqueous NaCl) was added to 190 μl of undiluted juice at 37° C. Aliquots of 25 μl were withdrawn at intervals and mixed with 100 μl acetone to stop the reaction. After centrifugation for 10 min at 10,000 g, 10 μl of the supernatant was analyzed by reversed phase HPLC. […] Analysis was carried out in a Varian 5000 HPLC analyzer equipped with a UV-detector (220 nm). Column Bondapak TM C18 (3.9×300 mm), eluant MeOH/0.025 M NH4 Ac (isocratic conditions), flow rate 1 ml/min. […] Protein: Bio-Rad protein assay. pH: Orion model SA720; pH-paper Merck (Darmstadt), range 4.0-7.0.

For `NC(=O)CC[C@@H]1NC(=O)[C@H](Cc2ccccc2)NC(=O)[C@H](Cc2ccc(O)cc2)NC(=O)CCSSC[C@@H](C(=O)N2CCC[C@H]2C(=O)N[C@H](CCCN=C(N)N)C(=O)NCC(N)=O)NC(=O)[C@H](CC(N)=O)NC1=O` [DDAVP, Mpa-Tyr-Phe-Gln-Asn-Cys-Pro-D-Arg-Gly-GlyNH2], which “DDAVP degraded (to about 50%)” value is on record?
Its value is “about 50%”.
